Literature values, collected in PMC6311893, “Computational prediction of plasma protein binding of cyclic peptides from small molecule experimental data using sparse modeling techniques” (BMC Bioinformatics, 2018).
Read-outs that look alike come from different tables or passages of the source.

Test system: plasma protein
Conditions: cited from earlier work
[1] = fraction bound to plasma protein, small molecule dataset, sheet 1-SM, Set Dtr, ref Ingle et al.
[2] = fraction bound to plasma protein, small molecule dataset, sheet 1-SM (Set Dte = test, Dtr = training), ref Ingle et al.
[3] = fraction bound to plasma protein, small molecule dataset, sheet 1-SM, ref Ingle et al.

| Molecule | PPB (fb) [1] | PPB (fb) [3] | further results |
| --- | --- | --- | --- |
| CCCCN1CCCCC1C(=O)Nc1c(C)cccc1C (stereo not drawn) [Bupivacaine] | 0.95 | – | – |
| COc1cc2nc(N3CCN(C(=O)C4COc5ccccc5O4)CC3)nc(N)c2cc1OC (stereo not drawn) [Doxazosin] | 0.97 | – | – |
| Cc1c(Cl)cccc1Nc1ccccc1C(=O)O [tolfenamic acid] | 0.99 | – | – |
| CC1(C)S[C@@H]2[C@H](/N=C/N3CCCCCC3)C(=O)N2[C@H]1C(=O)O [amdinocillin] | – | – | PPB (fb) [2]: 0.14 |
| C[C@H]1O[C@@H](n2cc(F)c(=O)[nH]c2=O)[C@H](O)[C@@H]1O [Doxifluridine] | 0.39 | – | – |
| COc1cc(NCc2ccc3nc(N)nc(N)c3c2C)cc(OC)c1OC [Trimetrexate] | – | 0.96 | – |
| quinagolide | – | – | PPB (fb) (plasma): 0.9 |
| C/C=C/C1=C(C(=O)O)N2C(=O)C(NC(=O)C(N)c3ccc(O)cc3)C2SC1 (stereo not drawn) [Cefprozil] | 0.38 | – | – |
| Cc1onc(-c2c(F)cccc2Cl)c1C(=O)N[C@@H]1C(=O)N2[C@@H]1SC(C)(C)[C@@H]2C(=O)O [Flucloxacillin] | 0.95 | – | – |
| Cc1onc(-c2ccccc2Cl)c1C(=O)N[C@@H]1C(=O)N2[C@@H]1SC(C)(C)[C@@H]2C(=O)O [cloxacillin] | – | – | PPB (fb) [2]: 0.95 |
| NC(=O)OCC(COC(N)=O)c1ccccc1 [felbamate] | – | 0.23 | – |
| C[n+]1ccccc1/C=N/O [pralidoxime chloride] | – | 0.05 | – |
| dicoumarol | – | – | PPB (fb) (plasma): 0.99 |
| CNCCC(Oc1ccc(C(F)(F)F)cc1)c1ccccc1 (stereo not drawn) [fluoxetine] | – | 0.95 | – |
| Clc1ccccc1CN1CCc2sccc2C1 [ticlopidine] | – | 0.96 | – |
| CCN1CCN(C(=O)N[C@@H](C(=O)N[C@@H]2C(=O)N3[C@@H]2SC(C)(C)[C@@H]3C(=O)O)c2ccccc2)C(=O)C1=O [Piperacillin] | – | – | PPB (fb) (plasma): 0.4 |
| COc1ccc(CC(C)NCC(O)c2ccc(O)c(NC=O)c2)cc1 (stereo not drawn) [formoterol] | – | – | PPB (fb) (plasma): 0.62 |
| CC12CCC3c4ccc(O)cc4CCC3C1CCC2O (stereo not drawn) [17-a-estradiol] | – | – | PPB (fb) [2]: 0.98 |
| CN1C(=O)CC(=O)N(c2ccccc2)c2cc(Cl)ccc21 [clobazam] | – | – | PPB (fb) (plasma): 0.92 |
| Cc1ccccc1C(OCCN(C)C)c1ccccc1 (stereo not drawn) [orphenadrine] | – | 0.95 | – |
| CCN[C@H]1C[C@H](C)S(=O)(=O)c2sc(S(N)(=O)=O)cc21 [dorzolamide] | – | – | PPB (fb) [2]: 0.3 |
| CC1(C)SC2C(NC(=O)C(Oc3ccccc3)c3ccccc3)C(=O)N2C1C(=O)O (stereo not drawn) [penicillin51] | – | 0.97 | – |
| NNc1nncc2ccccc12 [Hydralazine] | 0.87 | – | – |
| C[C@]12C=CC(=O)C=C1CC[C@@H]1[C@@H]2[C@@H](O)C[C@@]2(C)[C@H]1CC[C@]2(O)C(=O)CO [Prednisolone] | 0.81 | – | – |

| Molecule | PPB (fb) [1] | PPB (fb) [3] | further results |
| --- | --- | --- | --- |
| CCN(CCO)CCCC(C)Nc1ccnc2cc(Cl)ccc12 (stereo not drawn) [Hydroxychloroquine] | 0.46 | – | – |
| CCCN1C[C@H](CSC)C[C@@H]2c3cccc4[nH]cc(c34)C[C@H]21 [pergolide] | – | 0.9 | – |
| CC[C@@]1(O)C(=O)OCc2c1cc1n(c2=O)Cc2cc3c(CN(C)C)c(O)ccc3nc2-1 [Topotecan] | – | 0.25 | – |
| N#CC(CCN1CCC(C(N)=O)(N2CCCCC2)CC1)(c1ccccc1)c1ccccc1 [Piritramide] | – | – | PPB (fb) (plasma): 0.94 |
| CCC(OC(C)=O)C(CC(C)N(C)C)(c1ccccc1)c1ccccc1 (stereo not drawn) [laam] | – | – | PPB (fb) (plasma): 0.8 |
| OCCN1CCN(CC/C=C2/c3ccccc3Sc3ccc(Cl)cc32)CC1 [zuclopenthixol] | 0.98 | – | – |
| CN(C)CCCOc1nn(Cc2ccccc2)c2ccccc12 [benzydamine] | – | – | PPB (fb) [2]: 0.1 |
| c1ccc(C2(N3CCCCC3)CCCCC2)cc1 [Phencyclidine] | – | – | PPB (fb) (plasma): 0.68 |
| CO/N=C1\CN(c2nc3c(cc2F)c(=O)c(C(=O)O)cn3C2CC2)CC1CN (stereo not drawn) [Gemifloxacin] | – | 0.64 | – |
| N[C@@H](C(=O)N[C@@H]1C(=O)N2C(C(=O)O)=C(CSc3c[nH]nn3)CS[C@H]12)c1ccc(O)cc1 [Cefatrizine] | 0.59 | – | – |
| CC(Oc1ccccc1)C(=O)NC1C(=O)N2C1SC(C)(C)C2C(=O)O (stereo not drawn) [penicillin48] | – | 0.82 | – |
| Cc1cccc(C)c1NC(=O)C1CCCCN1C (stereo not drawn) [Mepivacaine] | – | – | PPB (fb) [2]: 0.77 |
| C#CCN(C)[C@H](C)Cc1ccccc1 [Selegiline] | – | – | PPB (fb) (plasma): 0.9 |
| Cc1c(C(C)C)c(=O)n(-c2ccccc2)n1C [propyphenazone] | – | 0.1 | – |
| COc1ccc(C(CN(C)C)C2(O)CCCCC2)cc1 (stereo not drawn) [Venlafaxine] | – | – | PPB (fb) (plasma): 0.27 |
| CCN(CC)CCOC(=O)C(Cc1cccc2ccccc12)CC1CCCO1 (stereo not drawn) [nafronyl] | – | 0.9 | – |
| NS(=O)(=O)Cc1noc2ccccc12 [zonisamide] | – | – | PPB (fb) [2]: 0.4 |
| O=c1[nH]c2ccccc2n1CCCN1CCC(n2c(=O)[nH]c3cc(Cl)ccc32)CC1 [Domperidone] | 0.92 | – | – |
| NS(=O)(=O)c1cc2c(cc1Cl)N=CNS2(=O)=O [chlorothiazide] | – | – | PPB (fb) [2]: 0.7 |
| Cc1cc2nc3c(=O)[nH]c(=O)nc-3n(C[C@H](O)[C@H](O)[C@H](O)CO)c2cc1C [riboflavin] | – | 0.6 | – |
| O=C(O)c1ccccc1O [salicylate] | – | 0.85 | – |
| CO/N=C(\C(=O)N[C@@H]1C(=O)N2C(C(=O)O)=CCS[C@H]12)c1csc(N)n1 [Ceftizoxime] | 0.28 | – | – |
| CC(=O)Oc1cc(C(C)C)c(OCCN(C)C)cc1C [Moxisylyte] | – | 0.26 | – |
| COc1cc2c(cc1OC)[C@@H](Cc1cc(OC)c(OC)c(OC)c1)[N+](C)(CCCOC(=O)CC/C=C/CCC(=O)OCCC[N+]1(C)CCc3cc(OC)c(OC)cc3[C@H]1Cc1cc(OC)c(OC)c(OC)c1)CC2 (stereo partly drawn) [Mivacurium] | 0.3 | – | – |

| Molecule | PPB (fb) [1] | PPB (fb) [3] | further results |
| --- | --- | --- | --- |
| CN(C)CCCC1(c2ccc(F)cc2)OCc2cc(C#N)ccc21 (stereo not drawn) [Citalopram] | 0.68 | – | – |
| CC(C)(C)NCC(O)c1cc(O)cc(O)c1 (stereo not drawn) [Terbutaline] | – | 0.23 | – |
| CCc1nnc(NS(=O)(=O)c2ccc(N)cc2)s1 [sulfaethidole] | – | 0.97 | – |
| Nc1ccn([C@@H]2O[C@H](CO)[C@@H](O)C2(F)F)c(=O)n1 [Gemcitabine] | 0.01 | – | – |
| Nc1ccn(C[C@@H](CO)OCP(=O)(O)O)c(=O)n1 [Cidofovir] | 0.02 | – | – |
| NCC[C@H](O)C(=O)N[C@@H]1C[C@H](N)[C@@H](O[C@H]2O[C@H](CN)[C@@H](O)[C@H](O)[C@H]2O)[C@H](O)[C@H]1O[C@H]1O[C@H](CO)[C@@H](O)[C@H](N)[C@H]1O [Amikacin] | 0.09 | – | – |
| O=C(O)c1cc(-c2ccc(F)cc2F)ccc1O [Diflunisal] | 0.99 | – | – |
| Nc1nc2c(c(=O)[nH]1)N(C=O)C(CNc1ccc(C(=O)N[C@@H](CCC(=O)O)C(=O)O)cc1)CN2 (stereo partly drawn) [leucovorin] | – | 0.91 | – |
| CCCC(CCC)C(=O)O [Valproic Acd] | – | 0.9 | – |
| CCC(=O)C(CC(C)N(C)C)(c1ccccc1)c1ccccc1 (stereo not drawn) [Methadone] | – | – | PPB (fb) (plasma): 0.84 |
| CO/N=C(\C(=O)N[C@@H]1C(=O)N2C(C(=O)O)=C(COC(N)=O)CS[C@H]12)c1ccco1 [Cefuroxime] | 0.32 | – | – |
| C[C@]12CCC(=O)C=C1CC[C@H]1[C@@H]3CC[C@](O)(C(=O)CO)[C@@]3(C)C[C@H](O)[C@@]12F [fludrocortisone] | – | 0.75 | – |
| COC(=O)Nc1nc2ccc(C(=O)c3ccccc3)cc2[nH]1 [Mebendazole] | 0.93 | – | – |
| COC(C(=O)NC1C(=O)N2C1SC(C)(C)C2C(=O)O)c1cccc(F)c1 (stereo not drawn) [penicillin45] | – | 0.65 | – |
| CN(C)CCCN1c2ccccc2Sc2ccc(Cl)cc21 [Chlorpromazine] | 0.96 | – | – |
| COCC1=C(C(=O)OC(C)OC(=O)OC(C)C)N2C(=O)[C@@H](NC(=O)/C(=N\OC)c3csc(N)n3)[C@H]2SC1 (stereo partly drawn) [cefpodoxime proxetil] | – | – | PPB (fb) [2]: 0.29 |
| CC(=O)[C@H]1CC[C@H]2[C@@H]3CC[C@@H]4C[C@H](O)CC[C@]4(C)[C@H]3CC[C@]12C [Eltanolone] | – | – | PPB (fb) (plasma): 0.99 |
| COc1ccc(Cc2nccc3cc(OC)c(OC)cc23)cc1OC [Papaverine] | – | – | PPB (fb) (plasma): 0.9 |
| C=CC[N@@+]12CC[C@@]34c5ccccc5N5/C=C6/[C@H]7C[C@H]8[C@@]9(CC[N@@+]8(CC=C)C/C7=C/CO)c7ccccc7N(/C=C(/[C@@H](C[C@@H]31)/C(=C\CO)C2)[C@H]54)[C@@H]69 [alcuronium] | – | – | PPB (fb) (plasma): 0.4 |
| O=C(O)c1cc(/N=N/c2ccc(O)c(C(=O)O)c2)ccc1O [olsalazine] | – | 0.99 | – |
| CC[C@]1(O)C[C@H]2CN(CCc3c([nH]c4ccccc34)[C@@](C(=O)OC)(c3cc4c(cc3OC)N(C=O)[C@H]3[C@@](O)(C(=O)OC)[C@H](OC(C)=O)[C@]5(CC)C=CCN6CC[C@]43[C@@H]65)C2)C1 [Vincristine] | – | 0.6 | – |
| CS(=O)(=O)c1ccc([C@@H](O)[C@@H](CF)NC(=O)C(Cl)Cl)cc1 [florfenicol] | – | 0.12 | – |
| CN(C)CCC(c1ccc(Br)cc1)c1ccccn1 (stereo not drawn) [brompheniramine] | – | – | PPB (fb) [2]: 0.72 |
| CO[C@H]1C[C@@H]2CC[C@@H](C)[C@@](O)(O2)C(=O)C(=O)N2CCCC[C@H]2C(=O)O[C@H]([C@H](C)C[C@@H]2CC[C@@H](O)[C@H](OC)C2)CC(=O)[C@H](C)/C=C(\C)[C@@H](O)[C@@H](OC)C(=O)[C@H](C)C[C@H](C)/C=C/C=C/C=C/1C [sirolimus] | – | 0.92 | – |
